Measurements: ChEMBL document CHEMBL3994655, “Methylsulfonyl benzothiazoles (MSBT) derivatives: Search for new potential antimicrobial and anticancer agents” (2017)
Values after ≈ are worked out from the molar mass of the structure shown. Structures can show the parent of a compound that is named as a salt.

Experiments:
Escherichia coli [1] = test: Antibacterial activity against Escherichia coli ATCC 35421 assessed as zone of inhibition at 5 mg/ml by agar well diffusion method; type: functional; conditions: read-out: DIZ
Staphylococcus aureus [2] = test: Antibacterial activity against Staphylococcus aureus 209P assessed as zone of inhibition at 5 mg/ml by agar well diffusion method; type: functional; conditions: read-out: DIZ
Staphylococcus aureus [3] = test: Antibacterial activity against Staphylococcus aureus 209P assessed as zone of inhibition at 1 mg/ml by agar well diffusion method; type: functional; conditions: read-out: DIZ
Escherichia coli [4] = test: Antibacterial activity against Escherichia coli ATCC 35421 assessed as zone of inhibition at 1 mg/ml by agar well diffusion method; type: functional; conditions: read-out: DIZ
Candida albicans [5] = test: Antifungal activity against Candida albicans A01 assessed as zone of inhibition at 5 mg/ml by agar well diffusion method; type: functional; conditions: read-out: DIZ
Candida albicans [6] = test: Antifungal activity against Candida albicans A01 assessed as zone of inhibition at 1 mg/ml by agar well diffusion method; type: functional; conditions: read-out: DIZ
[7] = tested on: Staphylococcus epidermidis; test: Antibacterial activity against Staphylococcus epidermidis 209E after 24 to 48 hrs by macro-broth dilution method; type: functional
Staphylococcus aureus [8] = test: Antibacterial activity against Staphylococcus aureus 209P after 24 to 48 hrs by macro-broth dilution method; type: functional
Escherichia coli [9] = test: Antibacterial activity against Escherichia coli ATCC 20732 after 24 to 48 hrs by macro-broth dilution method; type: functional
Pseudomonas aeruginosa = test: Antibacterial activity against Pseudomonas aeruginosa M5 after 24 to 48 hrs by macro-broth dilution method; type: functional
Escherichia coli [10] = test: Antibacterial activity against Escherichia coli ATCC 35421 after 24 to 48 hrs by macro-broth dilution method; type: functional
HeLa [11] = test: Cytotoxicity against human HeLa cells assessed as cell growth at 10^-5 M after 48 hrs by SRB assay relative to control; type: functional; conditions: read-out: Activity
HeLa [12] = test: Cytotoxicity against human HeLa cells assessed as cell growth at 10^-7 M after 48 hrs by SRB assay relative to control; type: functional; conditions: read-out: Activity
HeLa [13] = test: Cytotoxicity against human HeLa cells assessed as cell growth at 10^-4 M after 48 hrs by SRB assay relative to control; type: functional; conditions: read-out: Activity
HeLa [14] = test: Cytotoxicity against human HeLa cells assessed as cell growth at 10^-6 M after 48 hrs by SRB assay relative to control; type: functional; conditions: read-out: Activity
HeLa [15] = test: Growth inhibition of human HeLa cells after 48 hrs by SRB assay; type: functional
Staphylococcus aureus [16] = test: Antibacterial activity against methicillin-resistant Staphylococcus aureus 3710 after 24 to 48 hrs by macro-broth dilution method; type: functional
Staphylococcus aureus [17] = test: Antibacterial activity against methicillin-resistant Staphylococcus aureus ATCC 33591 after 24 to 48 hrs by macro-broth dilution method; type: functional
HeLa [18] = test: Cytotoxicity against human HeLa cells assessed as reduction in cell viability after 48 hrs by SRB assay; type: functional, cell-based

| Compound | zone of inhibition at 5000 µg/mL (Escherichia coli [1]) [mm] | zone of inhibition at 5000 µg/mL (Staphylococcus aureus [2]) [mm] | zone of inhibition at 1000 µg/mL (Staphylococcus aureus [3]) [mm] | zone of inhibition at 1000 µg/mL (Escherichia coli [4]) [mm] | zone of inhibition at 5000 µg/mL (Candida albicans [5]) [mm] | zone of inhibition at 1000 µg/mL (Candida albicans [6]) [mm] | also measured |
| --- | --- | --- | --- | --- | --- | --- | --- |
| CS(=O)(=O)c1nc2cc(OCc3ccccc3)ccc2s1 | ≤ 7 | ≤ 7 | 8 | ≤ 7 | ≤ 7 | ≤ 7 | – |
| CCOc1ccc2sc(S(C)(=O)=O)nc2c1S(=O)(=O)Cl | ≤ 7 | ≤ 7 | ≤ 7 | ≤ 7 | ≤ 7 | ≤ 7 | – |
| CCNS(=O)(=O)c1c(OCC)ccc2sc(S(C)(=O)=O)nc12 | ≤ 7 | ≤ 7 | ≤ 7 | ≤ 7 | ≤ 7 | ≤ 7 | – |
| CCOc1ccc2sc(S(C)(=O)=O)nc2c1S(=O)(=O)NC1CC1 | ≤ 7 | ≤ 7 | ≤ 7 | ≤ 7 | ≤ 7 | ≤ 7 | – |
| CCOc1ccc2sc(S(C)(=O)=O)nc2c1NC(=O)CNCN1CCN(C(=O)OC(C)(C)C)CC1 | ≤ 7 | 8 | ≤ 7 | ≤ 7 | ≤ 7 | ≤ 7 | – |
| CC(=O)NC[C@H]1CN(c2ccc(N3CCOCC3)c(F)c2)C(=O)O1 [LINEZOLID] | – | – | – | – | – | – | MIC [7]: 1 µg/mL (≈ 2.96 µM); MIC (Staphylococcus aureus [8]): 1 µg/mL (≈ 2.96 µM) |
| CCOc1ccc2sc(S(C)(=O)=O)nc2c1S(=O)(=O)Nc1ccc(Cl)c(Cl)c1 | ≤ 7 | ≤ 7 | ≤ 7 | ≤ 7 | ≤ 7 | ≤ 7 | – |
| GENTAMICIN | – | – | – | – | – | – | MIC (Escherichia coli [9]): 1 µg/mL; MIC (Pseudomonas aeruginosa): 2 µg/mL; MIC (Escherichia coli [10]): 1 µg/mL |
| CCOc1ccc2sc(S(C)(=O)=O)nc2c1NC(=O)CCl | ≤ 7 | ≤ 7 | ≤ 7 | ≤ 7 | ≤ 7 | ≤ 7 | – |
| CCOc1ccc2sc(S(C)(=O)=O)nc2c1 | ≤ 7 | 8 | ≤ 7 | ≤ 7 | ≤ 7 | ≤ 7 | – |
| CCCNS(=O)(=O)c1c(OCC)ccc2sc(S(C)(=O)=O)nc12 | ≤ 7 | ≤ 7 | ≤ 7 | ≤ 7 | ≤ 7 | ≤ 7 | – |
| CCOc1ccc2sc(Cl)nc2c1 | ≤ 7 | ≤ 7 | ≤ 7 | ≤ 7 | ≤ 7 | ≤ 7 | – |
| CCOc1ccc2sc(S(C)(=O)=O)nc2c1NC(=O)CNCN1CCCC1 | ≤ 7 | ≤ 7 | ≤ 7 | ≤ 7 | ≤ 7 | ≤ 7 | – |
| COc1cccc2c1C(=O)c1c(O)c3c(c(O)c1C2=O)C[C@@](O)(C(=O)CO)C[C@@H]3O[C@H]1C[C@H](N)[C@H](O)[C@H](C)O1 [DOXORUBICIN HYDROCHLORIDE] | – | – | – | – | – | – | growth at 10 µM (HeLa [11]): -84.1%; growth at 0.1 µM (HeLa [12]): -76.8%; growth at 100 µM (HeLa [13]): -84.6%; growth at 1 µM (HeLa [14]): -82.9%; GI50 (HeLa [15]): < 0.1 µM; TGI (HeLa [15]): < 0.1 µM |
| CCOc1ccc2sc(S(C)(=O)=O)nc2c1S(=O)(=O)NC | ≤ 7 | ≤ 7 | ≤ 7 | ≤ 7 | ≤ 7 | ≤ 7 | – |
| CCOc1ccc2sc(S(C)(=O)=O)nc2c1S(=O)(=O)NC(CC)CC | 10 | 21 | 13 | 9 | ≤ 7 | ≤ 7 | growth at 10 µM (HeLa [11]): 35.6%; MIC [7]: 50 µg/mL (≈ 123 µM); MIC (Escherichia coli [9]): 50 µg/mL (≈ 123 µM); growth at 0.1 µM (HeLa [12]): 91.8%; MIC (Staphylococcus aureus [16]): 100 µg/mL (≈ 246 µM); MIC (Staphylococcus aureus [8]): 50 µg/mL (≈ 123 µM); MIC (Staphylococcus aureus [17]): 100 µg/mL (≈ 246 µM); MIC (Pseudomonas aeruginosa): 100 µg/mL (≈ 246 µM); MIC (Escherichia coli [10]): 50 µg/mL (≈ 123 µM); growth at 100 µM (HeLa [13]): -65.8%; growth at 1 µM (HeLa [14]): 89.4%; Activity (HeLa [18]): Dose-dependent effect; GI50 (HeLa [15]): 19.5 µM; LC50 (HeLa [15]): 87.4 µM; TGI (HeLa [15]): 53.5 µM; growth inhibition (GI) (HeLa [15]): Dose-dependent effect |
| CCOc1ccc2sc(S(C)(=O)=O)nc2c1NC(=O)CN1CCOCC1 | ≤ 7 | ≤ 7 | 9 | ≤ 7 | ≤ 7 | ≤ 7 | – |
| CCOc1ccc2sc(S(C)(=O)=O)nc2c1[N+](=O)[O-] | ≤ 7 | 8 | ≤ 7 | ≤ 7 | ≤ 7 | ≤ 7 | – |
| CCOc1ccc2sc(S(C)(=O)=O)nc2c1S(=O)(=O)NC(C)C | ≤ 7 | ≤ 7 | ≤ 7 | ≤ 7 | ≤ 7 | ≤ 7 | – |
| CCOc1ccc2sc(S(C)(=O)=O)nc2c1NC(=O)CNC(C)C | ≤ 7 | ≤ 7 | ≤ 7 | ≤ 7 | ≤ 7 | ≤ 7 | – |
| CCOc1ccc2sc(S(C)(=O)=O)nc2c1S(=O)(=O)Nc1ccc(Br)cc1 | 10 | 11 | 9 | 9 | ≤ 7 | ≤ 7 | growth at 10 µM (HeLa [11]): -11.2%; growth at 0.1 µM (HeLa [12]): 95.9%; growth at 100 µM (HeLa [13]): -82.3%; growth at 1 µM (HeLa [14]): 73.7%; Activity (HeLa [18]): Dose-dependent effect; GI50 (HeLa [15]): 6.8 µM; LC50 (HeLa [15]): 74.5 µM; TGI (HeLa [15]): 40.6 µM; growth inhibition (GI) (HeLa [15]): Dose-dependent effect |
| CCOc1ccc2sc(S(C)(=O)=O)nc2c1S(=O)(=O)NCc1ccccc1 | ≤ 7 | ≤ 7 | ≤ 7 | ≤ 7 | 9 | ≤ 7 | – |
| CS(=O)(=O)c1nc2cc(OCc3ccc(OCc4ccccc4)cc3)ccc2s1 | ≤ 7 | ≤ 7 | ≤ 7 | ≤ 7 | ≤ 7 | ≤ 7 | – |
| CS(=O)(=O)c1nc2cc(OCc3ccc(-c4ccccc4)cc3)ccc2s1 | ≤ 7 | ≤ 7 | ≤ 7 | ≤ 7 | ≤ 7 | ≤ 7 | – |
| CCOc1ccc2sc(S(C)(=O)=O)nc2c1S(=O)(=O)O | ≤ 7 | ≤ 7 | ≤ 7 | ≤ 7 | 9 | ≤ 7 | – |
| O=C(O)c1cn(C2CC2)c2cc(N3CCNCC3)c(F)cc2c1=O [CIPROFLOXACIN] | – | – | – | – | – | – | MIC [7]: 8 µg/mL (≈ 24.1 µM); MIC (Staphylococcus aureus [8]): 8 µg/mL (≈ 24.1 µM) |
| CS(=O)(=O)c1nc2cc(O)ccc2s1 | ≤ 7 | ≤ 7 | ≤ 7 | ≤ 7 | ≤ 7 | ≤ 7 | – |
| CCOc1ccc2sc(S(C)(=O)=O)nc2c1S(=O)(=O)N1CCO[C@H](COc2ccccc2)C1 | ≤ 7 | 9 | ≤ 7 | ≤ 7 | ≤ 7 | ≤ 7 | – |
